Here are results for 4 substances from US20190328891A1, “MEDICAL PREPARATION WITH A CARRIER BASED ON HYALURONAN AND/OR DERIVATIVES THEREOF, METHOD OF PREPARATION AND USE THEREOF” (CONTIPRO A.S., priority 2016, published 2019).

Square brackets hold non-standard residues; d marks the D form. Nle = CCCC[C@H](N)C(=O)O

In one experiment the test system is injured skin. The conditions noted are these: rabbits, alginate bandage containing the peptide; in comparison with Ser-Ile-Lys-Val-Ala-Val and Val-Pro-Val-Ala-Pro-Gly anchored on alginate bandage; cited from earlier work.
Experiment [1] has as its system Primary human fibroblasts (NHDF). Nature of the experiment: In vitro cell adhesion on the fibre comprising RGD motif. In kind it is cell-based. The following applies: fibre of native HYA with bonded peptide; DiI stained NHDF, 10^5 cells; fluorescent microscope; monitored for 7 days of cultivation (FIG. 6). As for the experimental part: The fibre of native HYA comprising RGD motif, prepared according to the procedure described in Example 14, and control fibres were cut into 1 cm pieces and transferred onto a non-adhesive panel with 24 wells. Primary human fibroblasts (NHDF) were pre-marked with the fluorescent dye DiI (Exmax/Emmax 549/565) and inoculated, in the amount of 10^5 cells, into the wells filled with the tested samples. Then the panel was shaken by a shaker (5 hrs/160 rpm) to keep the cells in suspension, under cultivation conditions (37° C., 5% CO2). After 24 h of cultivation the fibres were transferred into a well with fresh cultivation medium. Then the cells were observed and detected by fluorescent microscope Nikon Ti-Eclipse with the use of TRITC filter (Exmax/Emmax, 549/565). The fibroblasts proliferation was monitored for 7 days of cultivation.

Take “Ser-Ile-Arg-Val-X-Val-X-Pro-Gly (where X=Ala or Gly)”: in the experiment on injured skin, the epithelization entry is on record as “significantly higher” and the “volume of regenerated tissue” value is recorded as “larger”. For “H-Ahx-Ahx-Arg-Gly-Asp-Nle-O-HYA [H-Ahx-Ahx-Arg-Gly-Asp-Nle-OH]”, in experiment [1], the “adhesion and proliferation of human dermal fibroblasts on the fibre” value is reported as “did not support the cell adhesion”. The same measure, in the same setting: the value for “H-Gly-Gly-Gly-Arg-Gly-Asp-Nle-O-HYA (H-GGGRGD[Nle]-{O‑hyaluronan}) [H-Gly-Gly-Gly-Arg-Gly-Asp-Nle-OH, peptide with triglycine and RGD anchored to native hyaluronan fibre]” was “did not support the cell adhesion”. Regarding “H-Arg-Gly-Asp-Gly-Gly-Gly-Nle-O-HYA (H-RGDGGG[Nle]-{O‑hyaluronan}) [H-Arg-Gly-Asp-Gly-Gly-Gly-Nle-OH, RGD peptide linked to native hyaluronan fibre via triglycine linker]”, the “adhesion and proliferation of human dermal fibroblasts on the fibre” value in experiment [1] was “did not support the cell adhesion”.
